# Data published in patent US20170349879A1, “METHOD FOR CULTURING NORMAL CELLS AND ODONTOMA CELLS CONTAINED IN ORAL TISSUE” (CHIBA UNIVERSITY, priority 2014, published 2017).
# What was measured:
# Assay type in all cases: cell-based, human
# amylase = experiment: Protein expression analysis of amylase by immunocytological fluorescent staining; settings: salivary gland cells repeatedly subcultured in Rock inhibitor-containing medium; FIG. 3
# Protocol: (i) Salivary gland cells cultured on glass slides were fixed by being treated for 10 minutes with 4% paraformaldehyde (WaKo). (ii) The fixed cells were washed three times with Tris-buffered saline (TBS: Sigma-Aldrich). (iii) The fixed cells were permeated with 0.5% Triton X-100 (WaKo) for 15 minutes. (iv) The fixed cells were reacted for 30 minutes with TBS containing 1% bovine serum albumin (Sigma-Aldrich). (v) The fixed cells were washed three times with TBS. (vi) A primary antibody (anti-goat amylase (Santa Cruz)) was mixed with TBS and reacted at a concentration of 1:200 at 4° C. for 16 hours. (vii) The cells were washed three times with TBS. (viii) Anti-goat Alexa Floor 647 (Millipore) was mixed with phosphate-buffered physiological saline and reacted at a concentration of 1:200 at room temperature for 1 hour. (ix) The cells were washed three times with TBS. (x) The cells were mounted with DAPI-containing mounting medium (DaKo). (xi) The cells were observed under a confocal microscope (FV10i-LIV: OLYMPUS).
# odontoma cells = experiment: Cell culture of odontoma cells using a Rho kinase inhibitor (cell morphology); settings: inhibitor-containing medium (10 μM); passage 5 with inhibitor vs passage 0 without; FIG. 11
# Protocol: (§1) Odontoma cells, oral mucosal epithelial cells, fibroblasts, and cancer-associated fibroblasts (CAFs) (i) Patient-derived cells for use as a source material were taken in a required amount as described above. (ii) The cells were washed three times with phosphate-buffered physiological saline (PBS) (supplemented with 10 units/ml of penicillin and 100 μg/ml of streptomycin: Sigma-Aldrich). (iii) The cells were cut into small pieces with sterilized iris scissors and a surgical knife (No. 11). (iv) After addition of trypsin (TrypLE Select Enzyme, Gibco, Code No. A12177-01), the cells were shaken at 37° C. for 30 minutes. (v) The cells were mixed with Dulbecco's modified Eagle medium (DMEM: Sigma-Aldrich) (supplemented with 10% fetal bovine serum: Nichirei Bioscience Inc., Japan, 10 units/ml of penicillin and 100 μg/ml of streptomycin), and centrifugation (at 1000 rpm for 5 minutes) was repeated three times. (vi) The cells were mixed with DMEM (supplemented with 10% fetal bovine serum, 10 units/ml of penicillin, 100 μg/ml of streptomycin, 10 μM of the Rock kinase inhibitor and 0.3 μM of L-ascorbic acid 2-phosphate: Sigma-Aldrich) (DMEM+) and then seeded into collagen type I-coated cell culture dishes (IWAKI). (vii) The cells were washed with PBS once every three days to replace the above medium. (viii) The cultured cells were subcultured at 80% confluency. […]
# fibroblasts = experiment: Cell culture of fibroblasts using a Rho kinase inhibitor (cell morphology); settings: inhibitor-containing medium (10 μM); passage 7 with inhibitor vs passage 2 without; FIG. 13
# Protocol: as §1
structure (smiles),measurement,setting,value
"CC(N)[C@H]1CC[C@H](C(=O)Nc2ccncc2)CC1 (stereo partly drawn) [Rock inhibitor, (R)-(+)-trans-N-(4-pyridyl)-4-(1-aminoethyl)-cyclohexanecarboxamide]",protein expression of amylase,amylase,significantly high
same,cell morphology of odontoma cells on repeated subculture,odontoma cells,maintain their cell morphology even when repeatedly subcultured
same,cell morphology of fibroblasts on repeated subculture,fibroblasts,maintain their cell morphology even when repeatedly subcultured
